Experiments:
PC3 = assay: IC50 in tumor cell lines (PC3); format: cell-based; conditions: prostate tumor cell line PC3
Experimental: (§1) Cytotoxicity Assays. Cytotoxicity assays in the mechanism of action studies were performed according to Mosmann (1983), wherein the activity of mitochondrial reductases were measured using 3-(4,5-dimethylthiozol-3-yl)-2,5-diphenyltetrozolium bromide dye. In brief, cells were seeded in 96-well plates and incubated for various times at 37° C. Inhibition of cell growth was measured by adding 3-(4,5-dimethylthiozol-3-yl)-2,5-diphenyltetrozolium bromide dye, and after an additional 4 h of incubation at 37° C., the 96-well plates were centrifuged, and the culture supernatant was removed. DMSO was added to each well to solubilize the formazan crystals, and the optical density was read at 540 nm on a Quant Spectrophotometer (BioTek Instruments, Winooski, Vt.). Cell growth inhibition data are expressed as percentage of survival compared with untreated cells. The IC50 is defined as the drug concentration required to produce 50% growth inhibition. Results are mean S.E.M. (n 3).

A498 = assay: IC50 in tumor cell lines (A498); format: cell-based; conditions: Table 2; kidney tumor cell line A498
Experimental: as §1

MiaPaCa-2 tumors = assay: Antitumor efficacy and tolerability, MiaPaCa-2 tumors in SCID mice
Experimental: In Vivo Studies. Six- to 7-week-old male SCID mice were implanted with 10×10^6 MiaPaCa-2 cells in MatriGel (BD Biosciences) subcutaneously in the flank to establish tumors. Once the tumors reached approximately 100 mm^3 and were palpable (approximately 3 weeks later), DPC-046 treatment was initiated. […] Mice were administered vehicle alone or 44, 55, or 66 mg/kg/day DPC-046 intraperitoneally for 5 consecutive days. Tumor size, body weight, and general health of each mouse were recorded every 3rd day for the duration of the study.
FIG. 15 depicts the antitumor efficacy of (D)PC-046 in SCID mice. 10×10^6 MiaPaCa-2 cells in MatriGel were implanted subcutaneously into the flanks of SCID mice. Mice were randomized on day 6 (arrow) and then injected with vehicle alone or 44 or 55 mg/kg/day (D)PC-046 intraperitoneally daily for 5 consecutive days. Mean tumor burden is shown. Mean±S.D. (n=4 or 5). FIG. 16 depicts the AUC of tumor size versus time of MiaPaCa-2 tumors in SCID mice.

TrkB [1] = molecular target: T1, TrkB (Homo sapiens, UniProt Q16620); assay: Initial kinase screening (Amphora), TrkB; format: biochemical; set-up: assay run by Amphora Discovery Corporation (Durham, N.C.); conditions: 10 μM compound
T1 sequence (Q16620 32-822): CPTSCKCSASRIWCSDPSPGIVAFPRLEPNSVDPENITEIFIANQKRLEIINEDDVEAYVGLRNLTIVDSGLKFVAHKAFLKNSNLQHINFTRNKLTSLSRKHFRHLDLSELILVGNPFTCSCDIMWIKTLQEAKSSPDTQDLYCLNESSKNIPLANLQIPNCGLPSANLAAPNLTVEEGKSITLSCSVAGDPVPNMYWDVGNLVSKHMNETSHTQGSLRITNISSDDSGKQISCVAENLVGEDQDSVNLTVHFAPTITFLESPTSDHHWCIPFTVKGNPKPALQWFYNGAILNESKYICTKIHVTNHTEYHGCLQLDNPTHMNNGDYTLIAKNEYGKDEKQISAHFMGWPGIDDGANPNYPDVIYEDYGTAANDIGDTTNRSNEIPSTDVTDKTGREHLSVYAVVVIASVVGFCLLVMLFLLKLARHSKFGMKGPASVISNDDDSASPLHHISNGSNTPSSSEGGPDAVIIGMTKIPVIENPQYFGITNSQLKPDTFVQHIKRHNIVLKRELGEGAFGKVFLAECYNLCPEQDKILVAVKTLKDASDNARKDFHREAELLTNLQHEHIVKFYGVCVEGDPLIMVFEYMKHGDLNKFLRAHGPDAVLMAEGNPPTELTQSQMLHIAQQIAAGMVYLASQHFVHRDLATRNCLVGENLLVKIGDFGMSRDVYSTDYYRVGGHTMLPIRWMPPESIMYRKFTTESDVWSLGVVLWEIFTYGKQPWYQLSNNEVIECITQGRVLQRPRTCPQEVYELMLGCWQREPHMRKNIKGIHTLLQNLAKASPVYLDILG
Experimental: (§2) Kinase Screening. Initial kinase screening was performed by Amphora Discovery Corporation (Durham, N.C.).

BxPC3 DPC-4(−/−) cells = assay: Measurement of apoptosis and necrosis (Annexin V/PI); format: cell-based, Human; conditions: 24 to 72 h, highest concentration 1500 nM
Experimental: Measurement of Apoptosis and Necrosis. Apoptosis and necrosis after DPC-046 treatment was measured at 24 to 72 h by flow cytometry (Vermes et al., 1995) using Annexin V-Alexa Fluor 488 (Invitrogen) and propidium iodide (BioVision, Mountain View, Calif.). Because of the greater photostability of Alexa Fluor 488 over fluorescein isothiocyanate, we substituted Alexa Fluor 488-labeled Annexin V for fluorescein isothiocyanate-labeled Annexin V. Apoptosis was measured by positive Annexin V staining, indicating the translocation of phosphatidylserine on the cell membrane of apoptotic cells, whereas necrosis was measured by dual labeling of Annexin V and propidium iodide of necrotic cells. Unstained cells were deemed alive. Fluorescence of Annexin V-Alexa Fluor 488 and PI was measured on FL1 and FL2, respectively, on a BD Biosciences FACScan using CellQuest Pro software (BD Biosciences). Data are mean S.E.M. (n 3).
Mean±S.E.M., n=3. […] Mean±S.E.M., n=3. […] Mean tumor burden is shown.

TrkB [2] = molecular target: T1, TrkB; assay: Follow-up kinase screening and IC50 (SignalChem), TrkB; format: biochemical; set-up: assay run by SignalChem Pharmaceuticals, Inc. (Richmond, BC, Canada)
PIM-1 [3] = molecular target: T2, PIM-1 (Homo sapiens, UniProt P11309); assay: Initial kinase screening (Amphora), PIM-1; format: biochemical; set-up: assay run by Amphora Discovery Corporation (Durham, N.C.); conditions: 10 μM compound
T2 sequence (P11309 whole entry): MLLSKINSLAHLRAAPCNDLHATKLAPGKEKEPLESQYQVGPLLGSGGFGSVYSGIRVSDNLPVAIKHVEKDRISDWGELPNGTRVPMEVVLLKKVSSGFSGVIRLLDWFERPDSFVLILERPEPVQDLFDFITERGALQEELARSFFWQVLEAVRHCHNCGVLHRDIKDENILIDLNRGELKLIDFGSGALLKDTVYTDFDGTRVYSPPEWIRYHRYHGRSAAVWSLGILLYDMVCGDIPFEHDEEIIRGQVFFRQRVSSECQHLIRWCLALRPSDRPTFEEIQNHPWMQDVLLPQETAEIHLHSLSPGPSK
Experimental: as §2

A549 = assay: IC50 in tumor cell lines (A549); format: cell-based; conditions: lung tumor cell line A549
Experimental: as §1

SK-OV-3 = assay: IC50 in tumor cell lines (SK-OV-3); format: cell-based; conditions: Table 2; ovarian tumor cell line SK-OV-3
Experimental: as §1

PIM-1 [4] = molecular target: T2, PIM-1; assay: Follow-up kinase screening and IC50 (SignalChem), PIM-1; format: biochemical; set-up: assay run by SignalChem Pharmaceuticals, Inc. (Richmond, BC, Canada)
Caki-1 = assay: IC50 in tumor cell lines (Caki-1); format: cell-based; conditions: Table 2; kidney tumor cell line Caki-1
Experimental: as §1

[5] = Pharmacokinetic study, single intravenous dose; format: in vivo, SCID mice; conditions: single intravenous 88 mg/kg
Experimental: Pharmacokinetic Studies. The pharmacokinetics of DPC-046 in nontumor bearing SCID mice was determined after intravenous administration of a single dose of 88 mg/kg. Plasma samples were collected at 0, 1, 5, 15, 30, 60, 90, 120, 240, 480, 960, and 1440 min after dosing. Plasma DPC-046 concentrations were analyzed by reversed-phase chromatography and tandem mass spectrometry. In brief, mouse plasma was mixed with 99 volumes of acetonitrile, and an aliquot of the supernatant was injected onto the LC-MS. The LC-MS analysis was performed on a ThermoFinnigan Quantum Ultra triple quadrupole mass spectrometer (Thermo Fisher Scientific, Waltham, Mass.) in tandem with a Surveyor LC system. […] Data are mean±S.E.M. (n=3).

OVCAR3 = assay: IC50 in tumor cell lines (OVCAR3); format: cell-based; conditions: Table 2; ovarian tumor cell line OVCAR3
Experimental: as §1

PDGFRα = molecular target: T3, PDGFRα (Homo sapiens, UniProt P16234); assay: Initial kinase screening (Amphora), PDGFRα; format: biochemical; conditions: 10 μM compound
T3 construct: assay run by Amphora Discovery Corporation (Durham, N.C.)
T3 sequence (P16234 24-1089, species assumed): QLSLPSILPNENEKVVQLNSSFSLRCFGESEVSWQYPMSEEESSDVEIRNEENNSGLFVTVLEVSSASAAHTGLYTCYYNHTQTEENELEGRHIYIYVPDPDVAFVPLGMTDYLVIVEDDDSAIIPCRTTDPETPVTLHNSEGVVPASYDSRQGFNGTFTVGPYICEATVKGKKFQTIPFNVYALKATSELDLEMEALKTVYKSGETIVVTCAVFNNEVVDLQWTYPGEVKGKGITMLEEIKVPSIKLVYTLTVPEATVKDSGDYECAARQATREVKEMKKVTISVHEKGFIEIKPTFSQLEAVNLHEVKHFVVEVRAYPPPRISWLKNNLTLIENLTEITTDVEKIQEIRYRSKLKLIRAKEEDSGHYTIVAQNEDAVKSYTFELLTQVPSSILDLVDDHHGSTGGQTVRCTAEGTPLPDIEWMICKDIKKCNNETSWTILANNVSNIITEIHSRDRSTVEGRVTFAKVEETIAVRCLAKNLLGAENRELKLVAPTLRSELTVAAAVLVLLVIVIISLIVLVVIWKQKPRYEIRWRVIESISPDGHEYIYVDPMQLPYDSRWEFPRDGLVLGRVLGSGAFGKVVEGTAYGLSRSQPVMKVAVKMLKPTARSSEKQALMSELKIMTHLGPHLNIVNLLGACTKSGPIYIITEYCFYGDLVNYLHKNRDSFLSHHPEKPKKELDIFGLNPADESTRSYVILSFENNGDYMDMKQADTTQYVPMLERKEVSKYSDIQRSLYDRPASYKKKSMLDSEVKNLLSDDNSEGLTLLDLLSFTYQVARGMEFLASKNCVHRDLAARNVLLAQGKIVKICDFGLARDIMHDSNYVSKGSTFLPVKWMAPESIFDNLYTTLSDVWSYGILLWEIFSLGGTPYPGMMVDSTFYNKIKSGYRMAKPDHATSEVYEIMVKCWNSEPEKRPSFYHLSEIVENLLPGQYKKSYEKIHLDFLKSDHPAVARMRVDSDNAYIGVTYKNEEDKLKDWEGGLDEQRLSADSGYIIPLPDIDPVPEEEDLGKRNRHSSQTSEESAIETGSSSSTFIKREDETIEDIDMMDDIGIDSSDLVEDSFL
Experimental: as §2

[6] = 66 mg/kg/day i.p., 5 consecutive days, initial dose-ranging study
[7] = 25 μM DPC-046, follow-up screen
[8] = highest concentration tested (50 μM)

Which IC50 (PC3; Table 1) does the source give for `COc1ccc(-c2cnc(-c3ccncc3-c3cccc(OC)c3)o2)cc1` [DPC046] here?
Its IC50 is 0.0065 µM.

And the IC50 (PC3; Table 2)?
Its IC50 is 0.0065 µM.

What about the IC50 (A498) of the same compound?
Its IC50 is 0.014 µM.

And the “antitumor efficacy (in words)” value (MiaPaCa-2 tumors; 44 mg/kg/day daily for 5 days)?
The value was “not effective”.

What about the “average loss of body weight” value (MiaPaCa-2 tumors; 55 mg/kg/day group, while receiving injections, recovered by end of study) of the same compound?
Its value is 15.8%.

What about the “area under the tumor size X time curve vs controls (in words)” value (MiaPaCa-2 tumors; 55 mg/kg/day group, p=0.014) of the same compound?
The value was “statistically significant reduction”.

And the weight loss (MiaPaCa-2 tumors; 55 mg/kg/day, daily for 5 days, initial study)?
Its weight loss is 10%.

And the “MiaPaCa-2 tumor growth vs untreated controls (in words)” value (MiaPaCa-2 tumors; 55 mg/kg/day, daily for 5 days, preliminary data not shown)?
Its value is “reduced MiaPaCa-2 tumor growth”.

And the “tolerability (in words)” value (MiaPaCa-2 tumors; 66 mg/kg/day i.p., 5 consecutive days)?
Its value is “not tolerated”.

What about the death (MiaPaCa-2 tumors; [6]) of the same compound?
Its death is 60%.

And the weight loss (MiaPaCa-2 tumors; [6])?
Its weight loss is −15%.

What about the “MiaPaCa-2 tumor growth vs untreated group (in words)” value (MiaPaCa-2 tumors; experiment comparing 44 or 55 mg/kg/day daily for 5 days) of the same compound?
Its value is “significant inhibition of MiaPaCa-2 tumor growth”.

What about the “inhibition of TrkB” value (TrkB [1]) of the same compound?
The value was 55%.

What about the “mechanism of cell death (in words)” value (BxPC3 DPC-4(−/−) cells; listed as (D)PC-046) of the same compound?
The value was “both early apoptotic and necrotic cell death”.

And the “mechanism of cell death (in words)” value (BxPC3 DPC-4(−/−) cells; listed as DPC-046)?
Its value is “cell death by a combination of apoptosis and necrosis”.

What about the “inhibition of TrkB” value (TrkB [2]; [7]) of the same compound?
Its value is “more than 70%”.

What about the “inhibition of TrkB” value (TrkB [2]; [8]) of the same compound?
Its value is 98%.

And the “inhibition of PIM-1” value (PIM-1 [3])?
The value was 50%.

And the IC50 (A549; Table 1)?
The IC50 was 0.022 µM.

What about the IC50 (A549; Table 2) of the same compound?
The IC50 was 0.022 µM.

What about the IC50 (SK-OV-3) of the same compound?
The IC50 was 0.017 µM.

What about the “inhibition of PIM-1” value (PIM-1 [4]; [7]) of the same compound?
The value was “more than 70%”.

And the IC50 (PIM-1 [4]; eight-point concentration range 10 nM to 50 μM)?
The IC50 was 19.1 µM.

And the “inhibition of PIM-1” value (PIM-1 [4]; [8])?
Its value is 84%.

What about the IC50 (Caki-1) of the same compound?
The IC50 was 0.013 µM.

What about the “apparent volume of distribution” value ([5]; mice) of the same compound?
Its value is 135.2 L/kg.

And the clearance ([5]; mice)?
The clearance was 248 mL/min/kg.

What about the “mean (S.D.) plasma concentration at last sampling time” value ([5]; mice, 24 h) of the same compound?
The value was 0.226 (0.104) μM.

What about the “mean (S.D.) peak plasma concentration” value ([5]; mice, first sampling time (1 min)) of the same compound?
Its value is 10.8 (4.26) μM.

And the monoexponential half-life ([5]; mouse plasma)?
Its monoexponential half-life is 7.5 h.

And the IC50 (OVCAR3)?
The IC50 was 0.013 µM.

What about the “inhibition of PDGFRα” value (PDGFRα) of the same compound?
Its value is 46%.
